Laboratory results published in patent publication US9663561B2, “Methods of treatment of cancer using SRC-modulating peptides” (The University of Toledo, priority 2006, dated 2017).

Legend:
[1] = biological target: T1, GFP-canine α1 and Src-Rluc in 293T cells (Canis lupus familiaris, UniProt P50997); assay: BRET analysis; assay type: cell-based, human
T1 construct: expressed in transfected cells; host or cells: 293T (human embryo kidney)
Experimental: BRET assay was done as described by Lowry et al. (2002). Briefly, 24 h after transfection with GFP-Na+/K+-ATPase and Src-Rluc or other constructs as indicated, cells were seeded in triplicate in a 96-well microplate. After treatment with indicated concentration of ouabain, cells were exposed to equal volume of BRET analysis buffer containing 10 μM DeepBlue C, the substrate of Rluc. The emission at 410 nm (for Rluc) and 515 nm (for GFP) was immediately acquired using a Fluoroskan Ascent FL (Labsystems, Franklin, Mass.) with microplate luminometric detection. The BRET ratio was calculated as follows: (Emission at 515 nm−Background at 515 nm)/(Emission at 410 nm−Background at 410 nm), where Background signal was assessed in each experiment by measuring the signal of a sample of nontransfected cells.

Src and ERK1/2 = assay: Activation of Src and ERK1/2 in P-11, A4-11, PY-17 and AAC-19 cells (Western blot); assay type: cell-based, pig; conditions: for Src activation (Tyr(P)418-Src): 100 nM ouabain
Experimental: FIGS. 18A and 18B. Cells were exposed to 100 nM ouabain for either 5 or 15 min, and the cell lysates (50 μg/lane) were analyzed by Western blot for active Src or active ERK1/2. Blots were probed first with anti-Tyr(P)^418-Src or anti-pERK antibody, then stripped, and reprobed for total Src or ERK1/2 to ensure equal loading.
FIGS. 18 C and 18D. Cells were treated with indicated concentrations of ouabain for 5 min, and total cell lysates were analyzed for Tyr(P)^418-Src and total Src or pERK1/2 and total ERK1/2 as in FIGS. 18A and 18B. A representative Western blot and combined quantitative data are shown. The quantitative data (relative ratio of pSrc/Src or pERK/ERK) from three independent experiments (mean±S.E.) were calculated relative to the control condition of P-11 cells. *, p<0.05 versus the respective control condition of each cell line. con, control.
Cells were washed with PBS, solubilized in modified ice-cold radioimmune precipitation assay buffer, and subjected to immunoprecipitation or Western blot analysis. Protein signal was detected using the enhanced chemiluminescence kit and quantified using a Bio-Rad GS-670 imaging densitometer.

SYF and SYF+Src cells = assay: Protein tyrosine phosphorylation in SYF and SYF+Src cells; assay type: cell-based, mouse; conditions: 100 μM ouabain 5 min
Experimental: FIG. 9B. Both SYF and SYF+Src cells were treated with 100 μM ouabain for 5 min and analyzed as in A. Representative Western blots of three experiments are shown in both A and B.
(§1) Cells were lysed in RIPA buffer containing 1% Nonidet P40, 0.25% sodium deoxycholate, 150 mM NaCl, 1 mM EDTA, 1 mM phenylmethylsulfonyl fluoride, 1 mM sodium orthovanadate, 1 mM NaF, 10 μg/ml aprotinin, 10 μg/mlleupeptin, and 50 mM Tris-HCl (pH 7.4). Cell lysates were cleared by centrifugation at 16,000×g for […], and the supernatants (1 mg) were either immunoprecipitated with anti-α1 antibody or incubated with different GST-fusion proteins. The complexes were then pulled down by either protein G agarose or glutathione beads (Ma et al., 2000; Haas et al., 2002) and analyzed by Western blot.

[2] = biological target: T2, Na+/K+-ATPase/Src complex (Sus scrofa, UniProt P05024); assay: Src pY418 phosphorylation of the Na+/K+-ATPase/Src complex (Western blot); assay type: biochemical
T2 construct: Na+/K+-ATPase was purified from pig kidney outer medulla using the Jorgensen method; tissue Upstate Biotechnology (Src only); host or cells: pig kidney outer medulla (Na+/K+-ATPase)
Experimental: The Src kinase activity was assayed using a commercial kit (Haas et al., 2000). To determine how Na+/K+-ATPase affects Src kinase activity, the purified Src (4.5 U) was incubated with 5 μg of the purified Na+/K+-ATPase in the Src assay buffer for 30 min at room temperature. Afterward, both control Src or the Na+/K+-ATPase-bound Src were exposed to 10 μM ouabain and Src kinase activity was determined. In other experiments, the Src pY418 was measured by anti-pY418 antibody to indicate Src activation (Ma et al., 2000). To do so, the purified Src (4.5 U) was incubated with different amounts of the purified Na+/K+-ATPase or GST-Na+/K+ATPase constructs in phosphate-buffered saline (PBS) for 30 min at 37° C. Afterward, 2 mM ATP/Mg2+ was added. The reaction continued for 5 min at 37° C. and was stopped by addition of SDS sample buffer.
The purified Na+/K+-ATPase was solubilized in 1% Triton X-100 PBS and centrifuged at 100,000×g for 30 min. The supernatant was collected for the binding assay. GST-fusion proteins (5 μg) were conjugated on glutathione beads and incubated with the solubilized Na+/K+-ATPase in 500 μl PBS in the presence of 0.5% Triton X-100 at room temperature for 30 min. The beads were washed with the same buffer for four times. The bound Na+/K+ATPase was resolved on 10% SDS-PAGE and detected by Western blot. Reciprocal binding assay using GST-Na+/K+-ATPase constructs (5 μg) and purified Src lacking of first 85 amino acids (200 ng) or His-tagged Src constructs (100 ng) was done similarly. To test if native Na+/K+-ATPase binds Src, the above experiments were repeated in the absence of Triton X-100. To make the Na+/K+-ATPase/Src complex, 2-5 μg of the purified Na+/K+ATPase was incubated with 4.5 U of Src (˜10 ng) in PBS in the absence of Triton X-100 at room temperature for 30 min. The complex was either used for the experiments directly as indicated or collected by centrifugation at 100,000×g for 30 min.

LLC-PK1 cells = assay: Recruitment of Src to the Na+/K+-ATPase signaling complex (co-immunoprecipitation); assay type: cell-based, pig; conditions: 1 μM ouabain 5 min, control cells
Experimental: FIG. 9C Inhibition of Src blocks ouabain-induced recruitment of Src to the Na+/K+-ATPase signaling complex. LLC-PK1 cells were pretreated with 1 μM PP2 or PP3 for 15 min and then exposed to 1 μM ouabain for 5 min. Cell lysates were immunoprecipitated and analyzed. Values are mean±SE of at least four independent experiments. * p<0.05.
as §1

[3] = 10 μM ouabain 15 min before centrifugation

C[C@@H]1O[C@@H](O[C@H]2C[C@@H](O)[C@]3(CO)[C@H]4[C@H](O)C[C@]5(C)[C@@H](C6=CC(=O)OC6)CC[C@]5(O)[C@@H]4CC[C@]3(O)C2)[C@H](O)[C@H](O)[C@H]1O [ouabain]
ouabain concentration at which significant decrease in BRET ratio was detected [1]: 10 nM
BRET ratio ([1]; different concentrations of ouabain): dose-dependent decrease in the BRET ratio
Src activation (Tyr(P)418-Src) (Src and ERK1/2; A4-11 cells): significant reduction
dose-response of Src and ERK1/2 activation (Src and ERK1/2; AAC-19 cells (rat α1 knock-in)): shifted the dose-response curve to the right
Src activation (Tyr(P)418-Src) (Src and ERK1/2; P-11 cells): activated Src
Src activation (Tyr(P)418-Src) (Src and ERK1/2; PY-17 cells): essentially abolished
ERK1/2 phosphorylation (Src and ERK1/2; PY-17 cells, ouabain): failed to detect any ouabain-induced change
effects of ouabain on protein tyrosine phosphorylation (SYF and SYF+Src cells; SYF cells): completely abolished
effects of ouabain on protein tyrosine phosphorylation (SYF and SYF+Src cells; SYF+Src cells): restored
Src pY418 of cosedimented complex [2, 3]: increased the amount of Src pY418
total Src cosedimented with the Na+/K+-ATPase [2, 3]: no effect on total Src cosedimented
Src pY418 of Na+/K+-ATPase/Src complex ([2]; different concentrations of ouabain, 2 mM ATP/Mg2+, 5 min): significantly increased the pY418 in a dose-dependent manner
Src pY418 of Na+/K+-ATPase/Src complex ([2]; ouabain in the presence of vanadate): still able to stimulate pY418 of Src
Src coprecipitated with α1 (LLC-PK1 cells): increased coprecipitated Src
